Values quoted from earlier work as cited in US7115565B2, “Chemotherapeutic microemulsion compositions of paclitaxel with improved oral bioavailability” (Pharmacia & Upjohn Company, priority 2001, dated 2006).

Conditions: reported in the background

For `CC(=O)O[C@H]1C(=O)[C@@]2(C)[C@H]([C@H](OC(=O)c3ccccc3)[C@]3(O)C[C@H](OC(=O)[C@H](O)[C@@H](NC(=O)c4ccccc4)c4ccccc4)C(C)=C1C3(C)C)[C@]1(OC(C)=O)CO[C@@H]1C[C@@H]2O` [Paclitaxel], the oral bioavailability is given as “very low”.
